The values that follow come from the NIST ThermoML archive (doi:10.1021/je025629r).

Each structure is given as a SMILES string. ± gives the expanded uncertainty stated by the source.

The conditions of this data set: 298.2 K; 101.33 kPa; Liquid; vibrating tube.
One may read the mass density as the mass of a sample divided by its volume. As for `CCCCCCCCCCCCCCCC` [hexadecane], the mass density is given as 770.3 ± 0.4 kg/m3.

Regarding `CCO` [ethanol], the mass density stood at 784.93 ± 0.42 kg/m3.

For the compound `CCCCCCCCCCCC` [dodecane], the mass density is 746.6 ± 0.4 kg/m3.

On to `CO` [methanol], for which the mass density is 786.27 ± 0.42 kg/m3.

On to `CCCCCCCC[n+]1ccn(C)c1.[Cl-]` [1-methyl-3-octylimidazolium chloride], for which the mass density was found to be 1010.4 ± 1 kg/m3.

`CCCCCCC` [heptane]: the mass density is given as 682.3 ± 0.4 kg/m3.
